Measured values as given in US20150343016A1, “CHEMICAL ENTITIES AND THERAPEUTIC USES THEREOF” (The Regents of the University of Colorado, a body corporate, priority 2010, published 2015).

Tested on: 17 cell lines including Head and Neck Squamous Cell Carcinoma and non-small cell lung cancer lines
Test: MTT assays, Bouvardin with radiation, panel of 17 cell lines
Assay type: cell-based, human
Source text: The observation that Bouvardin enhanced the effect of radiation on Drosophila larvae led us to question whether this effect would translate to a mammalian system. In order to determine what cell lines should be used to create tumor xenografts in mice, MTT assays for cell viability were used first to test the effects of Bouvardin alone and in combination with radiation in human cancer cells. MTT assays measure cell viability by measuring mitochondrial enzyme function. We used 17 cell lines including Head and Neck Squamous Cell Carcinoma and non-small cell lung cancer lines.
The data for non-small cell lung cancer cell line (H157) is depicted in FIG. 16.
The growth inhibitory effects of Bouvardin with ionizing radiation (IR) were evaluated using a modified tetrazolium salt (MTT) assay. In the MTT assay, 1,000 to 2,000 viable cells were plated in 100 uL of growth medium in 96-well plates (Corning, Ithaca, N.Y.). Following an overnight incubation, drug was added in varying concentrations and the plates were irradiated on the same day (co-treatment) or 24 hr later (pre-treatment) and incubated for 6 to 7 days. The tetrazolium salt was added at a concentration of 0.4 mg/mL to each well following the 6- to 7-day treatment. The plates were incubated with the salt for 4 hours at 37° C. […] The absorbency of each well was measured using an automated plate reader (Molecular Devices, Sunnyvale, Calif.). […]

## COc1ccc(C[C@H]2C(=O)N[C@H](C)C(=O)N(C)[C@@H]3C(=O)N(C)[C@@H](Cc4ccc(O)c(c4)Oc4ccc(cc4)[C@H]3O)C(=O)N[C@@H](C)C(=O)N[C@H](C)C(=O)N2C)cc1 (stereo in doubt) [Bouvardin, bouvardin]
  interaction of Bouvardin with radiation across the panel: synergize in most, but not all of these cell lines
